Read-outs that look alike come from different tables or passages of the source.
Experiments:
SARS-CoV-2 PLpro = SARS-CoV-2 PLpro (Severe acute respiratory syndrome coronavirus 2, UniProt P0DTD1); test: SARS-CoV-2 PLpro inhibition assay (fluorescence, 96-well); assay type: biochemical; conditions: for percent inhibition of PLpro at 5 µM: read-out: Inhibition at 5 μM (%); for enzyme activity: 5 μM screening
SARS-CoV-2 Mpro = SARS-CoV-2 Mpro (Severe acute respiratory syndrome coronavirus 2, UniProt P0DTD1); test: SARS-CoV-2 Mpro inhibition assay (fluorescence, 96-well); assay type: biochemical; conditions: for percent inhibition at 5 µM: read-out: Inhibition at 5 μM (%); for IC50: Mpro 1 µM, inhibitor 0–20 µM, substrate 20 µM; for enzyme activity: at a concentration of 5 μM
PC12 cell = tested on: PC12 cell; parameters: method as in PMID 28695650; conditions: previous studies; cited from earlier work
[1] = PLpro 1 µM, inhibitor 0–20 µM, substrate 20 µM, read-out: IC50
[2] = Mpro, inhibitor 5 μM, substrate 1 μM, triplicate, 25 °C
[3] = PLpro, inhibitor 5 μM, substrate 1 μM, triplicate, 25 °C

| Compound | percent inhibition at 5 µM (SARS-CoV-2 Mpro; [2]) | percent inhibition of PLpro at 5 µM (SARS-CoV-2 PLpro; [3]) | percent inhibition at 5 µM (SARS-CoV-2 Mpro) | percent inhibition of PLpro at 5 µM (SARS-CoV-2 PLpro) | also measured |
| --- | --- | --- | --- | --- | --- |
| CC(C)C1CCC(C)(O)C2CCC(C)(O)C2C1=O [1R,5R,7S-guaiane-4R,10R-diol-6-one] |  |  |  |  | IC50 (SARS-CoV-2 PLpro; [1]): 0.386 ± 0.118 µM |
| C=C1CC[C@@H]2[C@@](O)(C1)[C@H](C(C)C)CC[C@]2(C)O [Compound 7, calamendiol] | 78.58 ± 0.67% | 20.1 ± 2.96% |  |  |  |
| CC1=C[C@H]2[C@@H](C(C)C)CC[C@@](C)(O)[C@]2(O)[C@@H](O)C1 [Compound 14, calamentriol D] |  |  | 81.9 ± 1.31% | 25.4 ± 1.43% |  |
| CC(C)[C@@H]1CC[C@](C)(O)[C@@H]2CC[C@](C)(O)C[C@]21O [Compound 11, calamentriol B] |  |  | 80.5 ± 4.82% | 38.4 ± 7.04% |  |
| C=C1CC[C@@H]2[C@](C)(O)[C@H](O)C[C@H](C(C)C)[C@@]2(O)C1 [Compound 9, calamentriol A] |  |  | 82.9 ± 7.31% | 22.3 ± 4.83% |  |
| CC(C)[C@H]1CC[C@](C)(O)[C@H]2CC[C@@](O)(CO)C[C@]12O [Compound 12, calamentriol C] |  |  | 70.9 ± 1.17% | 25.8 ± 2.25% |  |
| CC(C)C1CCC(C)(O)C2=C1C(=O)C(C)(O)CC2O (stereo not shown) [Compound 13, menecubebane B] | 41.1 ± 8.77% | 24.9 ± 4.91% |  |  | IC50 (SARS-CoV-2 Mpro): 1.72 ± 0.394 µM; enzyme activity (SARS-CoV-2 Mpro; Mpro): less than 50%; IC50 (SARS-CoV-2 PLpro; [1]): 2.53 ± 0.885 µM |
| CC(C)C1CCC2(C)C(O)CCC(C)(O)C2C1O (stereo not shown) [Compound 17, ananosmin] |  |  | 74.6 ± 5.21% | 29.8 ± 1.54% |  |
| COc1cc(OC)c(OC)cc1C=O [Compound 24, 2,4,5-trimethoxybenzaldehyde] |  |  | 68.9 ± 0.71% | 9.54 ± 0.61% | IC50 (SARS-CoV-2 PLpro): 3.92 ± 1.29 µM; enzyme activity (SARS-CoV-2 PLpro; PLpro): below 10% |
| CC(C)(O)C[C@H]1CC[C@@]2(C)[C@H](O)CC[C@](C)(O)[C@H]12 [Compound 22, bullatantriol] | 82.8 ± 1.58% | 10.6 ± 2.59% |  |  | IC50 (SARS-CoV-2 PLpro; [1]): 1.26 ± 0.321 µM; enzyme activity (SARS-CoV-2 PLpro; PLpro): below 10% |
| CC1CC(=O)C(O)(C(C)C)C12CCC(C)(O)C(=O)C2 (stereo not shown) [Compound 20, calamusin D] |  |  | 79.7 ± 8.49% | 22.2 ± 3.58% |  |
| C=C1CC[C@@H]2[C@@](O)(C1)[C@H](C(C)C)CC[C@@]2(C)O [Compound 6, isocalamendiol] | 80.31 ± 0.79% | 6.89 ± 1.65% |  |  | IC50 (SARS-CoV-2 PLpro; [1]): 1.67 ± 0.496 µM; enzyme activity (SARS-CoV-2 PLpro; PLpro): below 10% |
| CC1(O)CCC2C(C3C1CCC3(C)O)C2(C)C (single isomer, unassigned; (-)) [Compound 5, (-)-alloaromadendrane-3β,9β-diol] |  |  | 78.33 ± 0.25% | 14.4 ± 0.88% |  |
| CC(C)C1CCC(C)(O)C2CCC(C)(O)C2C1=O [Compound 1, 1R,5R,7S-guaiane-4R,10R-diol-6-one] | 83.61 ± 0.01% | 6.41 ± 0.43% |  |  | enzyme activity (SARS-CoV-2 PLpro; PLpro): below 10% |
| CC(=O)CC[C@@]12CC(=O)O[C@]1(C(C)C)C(=O)C[C@@H]2C [Compound 18, neo-acorane A] | 31 ± 1.26% | 31.7 ± 8.07% |  |  | IC50 (SARS-CoV-2 Mpro): 0.63 ± 0.364 µM; enzyme activity (SARS-CoV-2 Mpro; Mpro): less than 50%; IC50 (SARS-CoV-2 PLpro; [1]): 1.89 ± 0.375 µM |
| CC1=CCC(C(C)C)C(O)C2C1CCC2(C)O (stereo not drawn) [Compound 2, 4β,6β-dihydroxy-1α,5β(H)-guai-9-ene] |  |  | 85.9 ± 0.61% | 14 ± 1.95% |  |
| CC(C)C1=CC[C@@]2(C)[C@H](O)CC[C@](C)(O)[C@@H]2C1 [Compound 16, oplodiol] |  |  | 78.2 ± 12.9% | 33.6 ± 2.46% |  |
| COc1cc2ccnc3c2c(c1O)-c1c-3cccc(OC)c1=O [Compound 23, neo-tatarine] | 81.5 ± 3.65% | 6.71 ± 3.23% |  |  | IC50 (SARS-CoV-2 PLpro; [1]): 0.743 ± 0.187 µM; enzyme activity (SARS-CoV-2 PLpro; PLpro): below 10%; inhibitory effect on Aβ25-35-induced PC12 cell death (PC12 cell): significant inhibitory effect |
| CC(C)[C@@H]1CCC(=O)C2=C1[C@H](O)[C@](C)(O)CC2 [Compound 15, oxyphyllenodiols A] |  |  | 79.3 ± 10.4% | 35.3 ± 2.35% |  |
| calamusin H [Compound 8] |  | 14.2 ± 0.93% |  |  | percent inhibition (SARS-CoV-2 Mpro; [2]): 81.7 ± 6.15% |
| CC(=O)C1CCC2C1C(C(C)C)CCC2(C)O (stereo not shown) [Compound 21, oplopanone A] |  |  | 83.3 ± 4.06% | 33.9 ± 5.49% |  |
| CC(C)C1CCC(C)(O)C2CCC(C)(O)C2C1O (stereo not shown) [Compound 4, teuclatriol] |  |  | 87.19 ± 0.31% | 11.8 ± 1.99% |  |
| C=C1CCC(C(C)C)C(O)C2C1CCC2(C)O (stereo not drawn) [Compound 3, 4β,6β-dihydroxy-1α,5β(H)-guai-10(14)-ene] |  |  | 74.7 ± 0.05% | 11.3 ± 0.55% |  |
| CC(C)C(=O)[C@@]1([C@H](C)CC(=O)O)CC[C@@H](C)C(=O)C1 [Compound 19, acoric acid] | 75.55 ± 0.24% | 7.9 ± 1.94% |  |  | IC50 (SARS-CoV-2 PLpro; [1]): 1.45 ± 0.429 µM; enzyme activity (SARS-CoV-2 PLpro; PLpro): below 10% |
| CC1=CC[C@H]2[C@](O)(C1)[C@@H](C(C)C)CC[C@@]2(C)O [Compound 10, 1β,7β(H)-3-cadinadiene-6α,10α-diol] |  |  | 85.6 ± 0.88% | 26.6 ± 3.38% |  |

From article PMC10975828, “Screening for Active Compounds of Acorus calamus against SARS-CoV-2 Viral Protease and Mechanism Prediction” (Pharmaceuticals, 2024)
